The GI50 is the concentration that inhibits growth by half. Read a high GI50 as less potent growth inhibition.

The structures appear in SMILES notation. Square brackets hold non-standard residues; d marks the D form. Peptide text beside a SMILES is read from it. * marks the point of attachment. Dolaproine = CO[C@@H]([C@@H]1CCCN1)[C@@H](C)C(=O)O; Dil = CC[C@H](C)[C@H](NC)[C@@H](CC(=O)O)OC; X1 = C[C@@H](N*)[C@@H](O)c1ccccc1; NMeV = CN[C@H](C(=O)O)C(C)C

Assay [1] deals with SF-268. The experiment in a line: Growth inhibition of human SF268 cells incubated for 48 hrs by sulforhodamine B assay. The conditions noted are these: SF-268, 48 h. (The SRB assay estimates cell density from bound dye.)
The subject of assay [2] is DU-145. The experiment in a line: Growth inhibition of human DU145 cells incubated for 48 hrs by sulforhodamine B assay. The conditions noted are these: DU-145, 48 h.
The test system of assay [3] is NCI-H460. In words: Growth inhibition of human NCI-H460 cells incubated for 48 hrs by sulforhodamine B assay. The settings on record: NCI-H460, 48 h.
Assay [4] relates to MCF7. In words: Growth inhibition of human MCF7 cells incubated for 48 hrs by sulforhodamine B assay. The conditions noted are these: MCF7, 48 h.
For assay [5], the system named is KM-20L2. The experiment in a line: Growth inhibition of human KM20L2 cells incubated for 48 hrs by sulforhodamine B assay. The settings on record: KM-20L2, 48 h.
In assay [6] the test system is BXPC-3. In words: Growth inhibition of human BxPC3 cells incubated for 48 hrs by MTT assay. The settings on record: BXPC-3, 48 h. It is filed as functional. For orientation: Tetrazolium dyes change colour on reduction, which living cells bring about.
Assay [7] relates to BXPC-3. The experiment in a line: Growth inhibition of human BxPC3 cells incubated for 48 hrs by sulforhodamine B assay. The settings on record: BXPC-3, 48 h.

As for `CC[C@H](C)[C@@H]([C@@H](CC(=O)N1CCC[C@H]1[C@H](OC)[C@@H](C)C(=O)NCCc1ccc2ncccc2c1)OC)N(C)C(=O)[C@@H](NC(=O)[C@H](C(C)C)N(C)C)C(C)C`, the GI50 in assay [1] was determined as 0.399 nM; in assay [2], 0.399 nM; in assay [3], 5.71 nM; in assay [4] it was 0.532 nM; in assay [5] it was 0.518 nM; in assay [6] it was 2.66 nM.
Regarding `CC[C@H](C)[C@@H]([C@@H](CC(=O)N1CCC[C@H]1[C@H](OC)[C@@H](C)C(=O)NCCc1cnc2ccccc2c1)OC)N(C)C(=O)[C@@H](NC(=O)[C@H](C(C)C)N(C)C)C(C)C`, the GI50 in assay [1] stood at 0.385 nM; in assay [2] it was 0.266 nM; in assay [3], 41.2 nM; in assay [4], 0.305 nM; in assay [5], 0.532 nM; in assay [6], 27.9 nM.
On to `CC[C@H](C)[C@@H]([C@@H](CC(=O)N1CCC[C@H]1[C@H](OC)[C@@H](C)C(=O)N[C@H](C)[C@@H](O)c1ccccc1)OC)N(C)C(=O)[C@@H](NC(=O)[C@H](C(C)C)N(C)C)C(C)C`, for which the 50% growth inhibitory concentration (GI50) is 0.492 nM in assay [1]; 0.424 nM in assay [2]; 0.533 nM in assay [3]; 0.232 nM in assay [4]; 0.492 nM in assay [5]; > 1.37 nM in assay [6].
As to `CC[C@H](C)[C@@H]([C@@H](CC(=O)N1CCC[C@H]1[C@H](OC)[C@@H](C)C(=O)NCCc1cccc2ncccc12)OC)N(C)C(=O)[C@@H](NC(=O)[C@H](C(C)C)N(C)C)C(C)C`, the 50% growth inhibitory concentration (GI50) in assay [1] is 0.146 nM; in assay [2] it was 0.172 nM; in assay [3], 6.37 nM; in assay [4], 0.097 nM; in assay [5] it was 0.305 nM; in assay [6], 2.79 nM.
`CC[C@H](C)[C@@H]([C@@H](CC(=O)N1CCC[C@H]1[C@H](OC)[C@@H](C)C(=O)NCCc1ccc2cccnc2c1)OC)N(C)C(=O)[C@@H](NC(=O)[C@H](C(C)C)N(C)C)C(C)C`: the GI50 in assay [1] amounted to 0.032 nM; in assay [2], 0.04 nM; in assay [3], 14.6 nM; in assay [4], 0.039 nM; in assay [5], 0.054 nM; in assay [6], 4.12 nM.
With `CC[C@H](C)[C@@H]([C@@H](CC(=O)N1CCC[C@H]1[C@H](OC)[C@@H](C)C(=O)NCCc1ccc2ccccc2n1)OC)N(C)C(=O)[C@@H](NC(=O)[C@H](C(C)C)N(C)C)C(C)C`, the GI50 in assay [1] is 0.31 nM; in assay [2] it was 0.412 nM; in assay [3] it was 6.77 nM; in assay [4], 0.412 nM; in assay [5], 0.438 nM; in assay [6], 12.4 nM.
As for `CC[C@H](C)[C@@H]([C@@H](CC(=O)N1CCC[C@H]1[C@H](OC)[C@@H](C)C(=O)NCCc1cccc2cccnc12)OC)N(C)C(=O)[C@@H](NC(=O)[C@H](C(C)C)N(C)C)C(C)C`, the GI50 in assay [1] was determined as 0.03 nM; in assay [2], 0.053 nM; in assay [7], 0.425 nM; in assay [3], 1.19 nM; in assay [4], 0.053 nM; in assay [5], 0.053 nM.
Regarding `CC[C@H](C)[C@@H]([C@@H](CC(=O)N1CCC[C@H]1[C@H](OC)[C@@H](C)C(=O)NCCc1ccnc2ccccc12)OC)N(C)C(=O)[C@@H](NC(=O)[C@H](C(C)C)N(C)C)C(C)C`, the GI50 in assay [1] is 0.252 nM; in assay [2], 0.305 nM; in assay [3], 5.71 nM; in assay [4], 0.398 nM; in assay [5], 0.425 nM; in assay [6], 5.84 nM.
Turning to `CC[C@H](C)[C@@H]([C@@H](CC(=O)N1CCC[C@H]1[C@H](OC)[C@@H](C)C(=O)N[C@H](C)[C@@H](O)c1ccccc1)OC)N(C)C(=O)[C@@H](NC(=O)[C@@H](NC)C(C)C)C(C)C` (H-[NMeV]V[Dil][Dolaproine]-X1), the GI50 in assay [1] was 0.432 nM; in assay [2], 0.418 nM; in assay [3], 0.683 nM; in assay [4], 0.404 nM; in assay [5] it was 0.599 nM; in assay [6], > 1.39 nM.

The values are drawn from ChEMBL document CHEMBL4033614, “Antineoplastic Agents. 603. Quinstatins: Exceptional Cancer Cell Growth Inhibitors” (2017).
